# Results published in the supplement of paper PMC10307832.
# Columns and labels:
# Test in all cases: relative viability (nuclei count vs DMSO), 5 days (fraction); higher = more cells survive
# [1] = compound: C[C@@]1(C(=O)Nc2ccc(F)nc2)CCCN1c1nc(Nc2cc(C3CC3)n[nH]2)c2cccn2n1 + CS(=O)(=O)CCNCc1ccc(-c2ccc3ncnc(Nc4ccc(OCc5cccc(F)c5)c(Cl)c4)c3c2)o1 [Lapatinib] (partner 2 µM)
# Summary of the method: (§1)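 One day after seeding in 1536-well plates, lung cancer cell lines were dosed by pin tool. Dosing was either single-drug or a fixed anchor-drug dose plus five library-drug doses (not always all listed) in √10 steps. After 5 days, nuclei were stained in one fix-and-stain step and counted on 4× images, and relative viability is the nuclei count of treated wells over that of vehicle wells, given as the median of duplicate plates.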
# Motesanib + Phenformin = compound: CC1(C)CNc2cc(NC(=O)c3cccnc3NCc3ccncc3)ccc21 [Motesanib] + N=C(N)NC(=N)NCCc1ccccc1 [Phenformin] (partner 250 µM)
# Summary of the method: as §1
# Motesanib + Vorinostat = compound: CC1(C)CNc2cc(NC(=O)c3cccnc3NCc3ccncc3)ccc21 [Motesanib] + O=C(CCCCCCC(=O)Nc1ccccc1)NO [Vorinostat] (partner 1 µM)
# Summary of the method: as §1
# [2] = compound: C[C@@]1(C(=O)Nc2ccc(F)nc2)CCCN1c1nc(Nc2cc(C3CC3)n[nH]2)c2cccn2n1 + O=C(CCCCCCC(=O)Nc1ccccc1)NO [Vorinostat] (partner 1 µM)
# Summary of the method: as §1
Cell Line,relative viability ([1]; first compound 0.04 µM),relative viability ([1]; first compound 0.1265 µM),relative viability ([1]; first compound 0.4 µM),relative viability ([1]; first compound 1.265 µM),relative viability (Motesanib + Phenformin; first compound 0.03162 µM),relative viability (Motesanib + Phenformin; first compound 0.1 µM),relative viability (Motesanib + Phenformin; first compound 0.3162 µM),relative viability (Motesanib + Phenformin; first compound 1 µM),relative viability (Motesanib + Vorinostat; first compound 0.01 µM),relative viability (Motesanib + Vorinostat; first compound 0.03162 µM),relative viability (Motesanib + Vorinostat; first compound 0.1 µM),relative viability (Motesanib + Vorinostat; first compound 0.3162 µM),relative viability (Motesanib + Vorinostat; first compound 1 µM),relative viability ([2]; first compound 0.04 µM),relative viability ([2]; first compound 0.1265 µM),relative viability ([2]; first compound 0.4 µM),relative viability ([2]; first compound 1.265 µM),relative viability (Motesanib + Phenformin; first compound 0.01 µM)
NCI-H2405,0.762,0.706,0.76,0.744,0.265,0.404,0.402,0.422,0.941,0.989,0.96,1,0.994,0.959,0.889,0.634,0.44,
LCLC-97TM1,0.572,0.301,0.172,0.163,0.424,0.46,0.419,0.418,0.796,0.884,0.495,0.858,0.575,0.361,0.28,0.106,0.0755,0.427
NCI-H596,1.04,0.849,0.848,0.783,0.861,0.67,0.724,0.85,0.586,0.546,0.56,0.511,0.711,0.571,0.449,0.528,0.466,0.779
NCI-H727,0.692,0.371,0.247,0.294,0.613,0.664,0.587,0.487,1.12,1.29,1.39,1.26,1.29,1.3,0.774,0.774,0.474,0.408
H3255,0.243,0.291,0.226,0.155,0.367,0.364,0.394,0.35,0.694,0.88,0.661,0.893,0.773,0.852,0.816,0.815,0.829,0.357
SK-MES-1,0.477,0.438,0.364,0.448,0.588,0.714,0.703,0.658,1.13,1.12,1.25,1.16,1.16,1.21,1.05,0.859,0.354,0.624
NCI-H1437,0.626,0.445,0.369,0.496,0.282,0.282,0.316,0.305,0.927,0.73,0.759,0.799,0.852,0.898,0.744,0.527,0.433,0.287
LU99A,0.808,0.545,0.48,0.342,0.886,0.819,0.952,0.894,0.473,0.593,0.505,0.645,0.484,0.368,0.245,0.229,0.193,0.737
HCC-827,0.224,0.214,0.17,0.175,0.475,0.405,0.448,0.451,0.759,0.945,0.881,0.666,0.885,0.891,0.933,0.731,0.823,0.449
LK-2,,1.16,0.584,0.713,0.39,,0.538,0.549,0.271,0.311,0.386,0.433,0.486,0.294,0.182,0.151,0.202,0.372
HCC-366,1.22,0.946,1.07,0.883,0.53,0.619,0.643,0.587,0.382,0.388,0.443,0.375,0.308,0.395,0.315,0.2,0.0599,0.628
BEN,0.712,0.729,0.765,0.698,0.259,0.229,0.253,0.272,0.543,0.56,0.637,0.654,0.772,0.537,0.492,0.467,0.439,0.257
NCI-H23,0.958,0.496,0.695,0.6,0.865,0.771,0.795,0.715,0.597,0.549,0.516,0.741,0.51,0.473,0.332,0.27,0.178,0.799
NCI-H1395,1.17,0.86,0.885,0.988,0.431,0.406,0.543,0.433,0.56,0.526,0.707,0.794,0.677,0.803,0.415,0.629,0.528,0.437
201T,1.05,0.91,0.717,0.862,0.44,0.485,0.48,0.427,0.929,0.974,1.08,1.01,1.01,0.858,0.755,0.634,0.62,0.377
NCI-H2170,0.245,0.258,0.283,0.271,0.359,0.447,0.489,0.409,0.797,0.851,0.804,0.837,0.818,0.825,0.729,0.819,0.743,0.469
NCI-H460,1.05,0.798,0.886,0.829,0.455,0.54,0.549,0.527,0.635,0.696,0.716,0.726,0.666,0.829,0.431,0.555,0.302,0.478
NCI-H661,0.492,0.839,0.32,0.389,0.268,0.28,0.292,0.268,0.775,0.737,0.766,0.797,0.883,0.781,0.774,0.815,0.559,0.292
HCC-15,0.839,0.743,0.746,0.739,0.376,0.497,0.527,0.503,0.883,0.843,0.866,0.875,0.877,0.689,0.51,0.555,0.774,0.416
ABC-1,1.14,1.59,0.752,0.633,0.229,0.223,0.229,0.242,0.786,1.22,0.939,1.24,1.06,1.23,0.819,0.708,0.409,0.238
EPLC-272H,0.885,0.668,0.601,0.72,0.333,,0.338,0.247,0.385,0.518,0.448,0.479,0.477,0.578,0.234,0.336,0.406,0.253
